According to patent US7119208B2, “Anti-sickling agents” (Virginia Commonwealth University, priority 2003, dated 2006):
“And” between values parts separate entries of the source, which are not always exact repeats. Identical values can stand only once. “Also recorded” adds a separate entry of the source.

Tests used:
AA cells = assay: Oxygen equilibrium studies with normal whole blood; assay type: cell-based, human; details: for n50 (Hill coefficient at 50% saturation in the presence of compound) / ΔP50 = P50d − P50c / P50d (value in the presence of compound): thiophene aldehydes, 5 mM, whole blood; for P50d (value in the presence of compound): repeat measurements; for P50: AA cells 40% hematocrit; for effect on the OEC of whole blood: normal adult whole blood, multi-point tonometry, in vitro
SS cells [1] = assay: Antisickling studies with homozygous sickle red blood cells; assay type: cell-based, human; details: for predicted antisickling activities: not determined, predicted from structure-activity relationships
patients with SCD = details: cited from earlier work; for clinical toxicity: human, in vivo
[2] = cited from earlier work
SS cells [3] = assay: Oxygen equilibrium studies with homozygous sickle red blood cells; assay type: cell-based, human; details: 5 mM compound; for SS cells P50: SS cells 10% hematocrit; for SS cells ΔP50: treated minus control
Description: SS cells were suspended in PBS to a final hematocrit of 10%. […] A 40 uL aliquot of this suspension was added to 4 ml Hemox buffer and subjected to oxygen equilibrium analysis (37° C.) using a Hemox-Analyzer (TCS Scientific Corp., Southampton, Pa.) (Asakura, 1979).

SS cells [4] = assay: Effect of compounds on homozygous sickle red blood cell size (MCV); assay type: cell-based, human; details: for changes in cell volumes of SS cells: 1, 2, and 5 mM compound
Description: To study the effect of the compounds on the degree of hydration/dehydration of SS cells, the compound-treated SS cells obtained in the preceding experiment (antisickling studies with SS cells) were evaluated with a Hemavet Cell Analyzer to determine the mean corpuscular volume (MCV).

SS cells [5] = assay: Antisickling studies with homozygous sickle red blood cells; assay type: cell-based, human; details: for inhibition at 5000 µM: Homo sapiens, Erythrocyte, read-out: Inhibition of sickling of SS cells
Description: Briefly, SS cells suspended in buffered saline solution, pH 7.4 (hematocrit of 10 %) were incubated at 37° C. with 4% oxygen in the presence of 5 mM compound. Aliquots (10 ul) of the suspensions were obtained after 5 hrs and fixed with 2% glutaraldehyde solution without exposure to air. Morphological analysis and percentage of SS cells that were not sickled were conducted using a computer-assisted image analysis system as described elsewhere (Hijiya, 1991).

Hb [6] = target: T1, Hb (Homo sapiens, UniProt P69905); details: Schiff base with N-terminal Val1 of T state Hb; cited from earlier work
Hb [7] = target: T1, Hb; assay: Co-crystallization of compounds with Hb, X-ray crystallography; assay type: binding; parameters: Purified human adult Hb in 50 mM Bis Tris buffer, pH 6.8, was prepared from discarded human blood; from tissue; host or cells: discarded human blood; Hb purified in house as in Safo and Abraham, 2003; details: deoxy Hb
HbS [8] = target: T2, HbS (Homo sapiens, UniProt P68871+P69905, E7V); assay: Oxygen equilibrium analysis of hemolysate from compound-treated SS cells; assay type: cell-based; details: hemolysate after incubation of 5 mM compound with SS cells; for Hemolysate ΔP50: treated minus control
T2 construct: The compound-treated SS cells obtained in the preceding experiment (oxygen equilibrium studies with SS cells) were hemolyzed; endogenous in cells; host or cells: homozygous sickle red blood (SS) cells from patients with SCD; hemolysate of the compound-treated cells

HbS [9] = target: T2, HbS; assay: HbS adduct formation, cation-exchange HPLC of hemolysate from compound-treated SS cells; assay type: cell-based; details: 5 mM compound, HPLC of hemolysate after incubation with SS cells
Tg sickle mice = assay: In vivo antisickling effect in transgenic sickle mice exposed to hypoxia; details: 5% oxygen
Description: In vivo antisickling effect of 5-HMF was investigated using transgenic (Tg) mice that produce human Hb S. Since the blood of wild type mice has an extremely right-shifted OEC (P50 of mouse blood: 40–44 mm Hg) as compared with the OEC of human blood (P50 of AA cells: 26.5 mm Hg; SS cells: 32 mm Hg), Tg sickle mice that produce approximately equal amounts of human and mouse […] and 100% human β^s-globin were used in this study. The P50 of these mice are between 26 and 34 mm Hg depending on the percentage of mouse β-globin. We used 5% oxygen (5% O2, 95% N2), because they develop pulmonary sequestration almost exclusively upon exposure of these mice to 5% O2. […] Upon exposure to hypoxia, we determine the percentage of sickled cells in the blood as well as the survival time. […] In the hypoxia experiments, the Tg sickle mice were exposed to hypoxia for up to 1 hr; any surviving mice at 1 hr were euthanized by cervical dislocation under anesthesia. In all cases, after the mouse died, it was immediately dissected. The heart, lungs, brain, liver, spleen, and kidneys were fixed in 10% phosphate-buffered formalin. Tissue samples were embedded in paraffin according to standard methods. Sections were cut and stained by a hematoxylin-eosin solution for light microscopy.

[10] = 5 mM compound, P50 of treated AA cells minus P50 of control
[11] = 5 mM compound, 4% oxygen, 10% hematocrit, 5 hrs

## O=Cc1ccc(Br)s1 [5-Bromo-2-thiophenecarboxyaldehyde]
AA cells
  n50 (Hill coefficient at 50% saturation in the presence of compound): 2.35
  ΔP50 = P50d − P50c: −6.63 mmHg
  P50d (value in the presence of compound): 21.96 mmHg and 20.24 mmHg

## Cc1ccc(C=O)o1 [Compound 5MF, 5-Methyl-2-furfuraldehyde]
AA cells; 5 mM compound
  n50 (Hill coefficient at 50% saturation): 1.70 ± 0.06
AA cells; 5 mM compound, 37° C.
  P50: 9.68 ± 0.24 mmHg
AA cells; [10]
  ΔP50: −16.16 mmHg
SS cells [1]
  predicted antisickling activities: lie between those of FUF and 5HMF

## COc1cc(C=O)ccc1O [Vanillin, vanillin, reference compound]
Patients with SCD
  clinical toxicity: clinically non-toxic
[2]; species not stated
  acute oral LD50: 1580 mg/kg
[2]; unit taken from the 5HMF value in the same sentence
  LD50: 1580 mg/kg
SS cells [3]
  SS cells P50: 17.7 ± 2.2 mmHg
  SS cells ΔP50: −13.5 mmHg
AA cells; 5 mM compound
  n50 (Hill coefficient at 50% saturation): 1.98 ± 0.23
AA cells; 5 mM compound, 37° C.
  P50: 19.06 ± 1.98 mmHg
AA cells; [10]
  ΔP50: −6.78 mmHg
SS cells [4]; 5 mM compound
  MCV: 61.0 fL
SS cells [5]; [11]
  Sickling of SS cells: 80%
  inhibition at 5000 µM: 20%

## Cc1ccsc1C=O [3-Methyl-2-thiophenecarboxyaldehyde]
AA cells
  n50 (Hill coefficient at 50% saturation in the presence of compound): 2.35
  ΔP50 = P50d − P50c: −7.01 mmHg
  P50d (value in the presence of compound): 21.55 mmHg and 20.63 mmHg

## CCOC(=O)C1CSC(c2ccc(CO)o2)N1 (stereo not shown) [MSDD1, 5-hydroxymethyl-2-furfural-thiazolidine-4-carboxylic acid ethyl ester]
AA cells
  effect on the OEC of whole blood: does not have effect on the OEC

## Cc1cc(C=O)cc(C)c1O [DMHB, 3,5-dimethyl-4-hydroxybenzaldehyde]
Hb [6]
  shift of the OEC: shift the OEC toward the left

## O=Cc1ccco1 [FUF, 2-furfuraldehyde]
SS cells [3]
  SS cells P50: 15.4 ± 1.7 mmHg
  SS cells ΔP50: −15.8 mmHg
AA cells; 5 mM compound
  n50 (Hill coefficient at 50% saturation): 2.30 ± 0.01
AA cells; 5 mM compound, 37° C.
  P50: 14.49 ± 0.06 mmHg
AA cells; [10]
  ΔP50: −11.35 mmHg
Hb [7]
  compound binding in T state co-crystals: only weak binding
HbS [8]
  Hemolysate P50: 5.3 ± 0.6 mmHg
  Hemolysate ΔP50: −5.9 mmHg
SS cells [4]; 1 mM compound
  MCV: 60.3 fL
SS cells [4]; 2 mM compound
  MCV: 60.0 fL
SS cells [4]; 5 mM compound
  MCV: 62.8 fL
SS cells [4]
  changes in cell volumes of SS cells: did not result in changes in cell volumes
HbS [9]
  HbS adduct: 24% and 24 ± 5.7%
SS cells [1]; 1 mM compound, 4% oxygen
  Sickling of SS cells: 100%
SS cells [1]; 2 mM compound, 4% oxygen
  Sickling of SS cells: 100%
SS cells [1]; Homo sapiens, Erythrocyte, 1 mM compound, 4% oxygen, read-out: Inhibition of sickling of SS cells
  inhibition at 1000 µM: 0%
SS cells [1]; Homo sapiens, Erythrocyte, 2 mM compound, 4% oxygen, read-out: Inhibition of sickling of SS cells
  inhibition at 2000 µM: 0%
SS cells [5]; [11]
  Sickling of SS cells: 70%
  inhibition at 5000 µM: 30%

## O=Cc1ccc(CO)o1 [Compound 5HMF, 5-hydroxymethyl-2-furfuraldehyde]
SS cells [3]
  SS cells P50: 6.0 ± 1.2 mmHg
  SS cells ΔP50: −25.2 mmHg
AA cells; 1 mM compound
  n50 (Hill coefficient at 50% saturation): 2.08 ± 0.14
  ΔP50: −6.65 mmHg
  P50: 19.19 ± 1.51 mmHg
AA cells; 2 mM compound
  n50 (Hill coefficient at 50% saturation): 1.98 ± 0.08
  ΔP50: −10.80 mmHg
  P50: 15.04 ± 0.51 mmHg
AA cells; 5 mM compound
  n50 (Hill coefficient at 50% saturation): 1.88 ± 0.06
AA cells; 5 mM compound, 37° C.
  P50: 8.32 ± 0.40 mmHg
AA cells; [10]
  ΔP50: −17.52 mmHg
AA cells
  effect on the OEC of whole blood: able to shift the OEC to the left
Hb [7]
  compound binding in T state co-crystals: only weak binding
Tg sickle mice; 5HMF 100 mg/kg
  percentage of sickled cells in the arterial blood: reduced the formation of POSCs; also recorded: reduced the percentage of sickled cells
Tg sickle mice; 5HMF pretreatment
  survival of more than half of the mice: > 25 min
  survival time under hypoxia compared to control: significantly prolonged the survival time; also recorded: prolonged the survival time significantly; also recorded: about four times longer
HbS [8]
  Hemolysate P50: 1.8 ± 0.3 mmHg
  Hemolysate ΔP50: −9.4 mmHg
SS cells [4]; 1 mM compound
  MCV: 62.5 fL
SS cells [4]; 2 mM compound
  MCV: 61.0 fL
SS cells [4]; 5 mM compound
  MCV: 61.4 fL
SS cells [4]
  changes in cell volumes of SS cells: did not result in changes in cell volumes
HbS [9]
  HbS adduct: 70% and 70 ± 10.0%
SS cells [1]; 1 mM compound, 4% oxygen
  Inhibition of sickling of SS cells: 13%
  Sickling of SS cells: 87%
SS cells [1]; 2 mM compound, 4% oxygen
  Inhibition of sickling of SS cells: 42%
  Sickling of SS cells: 58%
SS cells [5]; 5 mM
  inhibition of cell sickling, times more than FUF: ~2.5 times
SS cells [5]; [11]
  Inhibition of sickling of SS cells: 90%
  Sickling of SS cells: 10%

## O=Cc1cc(Br)cs1 [4-Bromo-2-thiophenecarboxyaldehyde]
AA cells
  n50 (Hill coefficient at 50% saturation in the presence of compound): 2.41
  ΔP50 = P50d − P50c: −10.56 mmHg
  P50d (value in the presence of compound): 16.85 mmHg and 17.49 mmHg

## O=Cc1c(O)cccc1OCCCCC(=O)O [Compound 12C79]
Patients with SCD
  clinical toxicity: clinically non-toxic
Patients with SCD; intravenous infusion 40 mg/kg, patients with SCD
  compound-Hb adducts: more than 30%

## CCc1ccc(C=O)o1 [Compound 5EF, 5-Ethyl-2-furfuraldehyde]
AA cells; 5 mM compound
  n50 (Hill coefficient at 50% saturation): 1.77 ± 0.14
AA cells; 5 mM compound, 37° C.
  P50: 10.13 ± 0.75 mmHg
AA cells; [10]
  ΔP50: −15.71 mmHg
SS cells [1]
  predicted antisickling activities: lie between those of FUF and 5HMF

## O=Cc1ccc(O)c(C(=O)O)c1 [FSA, 5-formylsalicylic acid]
Hb [6]
  shift of the OEC: shift the OEC toward the right
